Source: DBAASP
In brackets after ≈: the same amount, converted by molar mass. Each block holds one compound with its values, some of them ahead of it.

Assays:
Test in all cases: ≥ marks a high value that may be exact or a test limit, other limits are often not marked, values filed in µg/mL are converted to µM
[1] = system: Staphylococcus epidermidis ATCC 12228
[2] = system: Escherichia coli DH5alpha
[3] = system: Micrococcus luteus ATCC 4698
[4] = system: Staphylococcus aureus ATCC 6538
[5] = system: Escherichia coli HP101BA 7601c
[6] = system: Micrococcus luteus PTCC 1625
[7] = system: Klebsiella pneumoniae PTCC 1388
[8] = system: Staphylococcus aureus PTCC 1431
[9] = system: Staphylococcus aureus CUN 3792-99
[10] = system: Stenotrophomonas maltophilia CUN 3998-00
[11] = system: Pseudomonas aeruginosa CUN 4158-02
[12] = system: Bordetella bronchiseptica CUN 11844-99
[13] = system: Staphylococcus aureus ATCC 43300
[14] = system: Staphylococcus aureus ATCC 25923
[15] = system: Escherichia coli ATCC 25922
[16] = system: Pseudomonas aeruginosa ATCC 27853
[17] = system: Acinetobacter baumannii ATCC 19606
[18] = system: Agrobacterium tumefaciens GV3101
Xanthomonas citri = system: Xanthomonas citri
Methylobacterium sp. = system: Methylobacterium sp.
[19] = system: Candida albicans ATCC 10231
[20] = system: Candida glabrata ATCC 2001
[21] = system: Staphylococcus aureus MU50
[22] = system: Staphylococcus aureus USA 200
[23] = system: Staphylococcus aureus USA 300
[24] = system: Candida tropicalis ATCC 13803
[25] = system: Staphylococcus epidermidis 1457
[26] = system: Candida albicans ATCC 90028
[27] = system: Staphylococcus aureus Newman
[28] = system: Escherichia coli ATCC 25726
Bacillus subtilis 168 = system: Bacillus subtilis 168
[29] = system: Staphylococcus aureus USA 400
[30] = system: Staphylococcus aureus UAMS-1
[31] = system: Pseudomonas aeruginosa PAO1
[32] = system: Klebsiella pneumoniae ATCC 13883
Serratia sp. ATCC 21074 = system: Serratia sp. ATCC 21074
[33] = system: Saccharomyces cerevisiae ATCC 44774
[34] = system: Pseudomonas putida ATCC 17426
[35] = system: Escherichia coli ATCC 27325
[36] = system: Cryptococcus neoformans ATCC 34881
[37] = system: Bacillus subtilis ATCC 62037
[38] = system: Streptococcus mutans ATCC 25175
[39] = system: Staphylococcus aureus ATCC 15752

MIC [1]: 6.52 µM (≈ 10 µg/mL) | MIC [2]: 7.83 µM (≈ 12 µg/mL) | MIC [3]: 1.96 µM (≈ 3 µg/mL) | MIC [4]: 5.87 µM (≈ 9 µg/mL)
SMILES: CC(C)C[C@H](NC(=O)[C@H](CC(C)C)NC(=O)[C@H](CCCCN)NC(=O)[C@H](CCCCN)NC(=O)[C@H](CC(C)C)NC(=O)[C@H](C)NC(=O)[C@H](CCCCN)NC(=O)[C@H](Cc1ccccc1)NC(=O)[C@H](CC(C)C)NC(=O)[C@H](C)NC(=O)[C@H](CCCCN)NC(=O)[C@H](CC(C)C)NC(=O)[C@@H](N)Cc1ccccc1)C(=O)O [FLKALFKALKKLL]

MIC [5]: 6.4 µM (≈ 15 µg/mL) | MIC [6]: 4.7 µM (≈ 11 µg/mL) | MIC [7]: 7.3 µM (≈ 17.1 µg/mL) | MIC [8]: 5.3 µM (≈ 12.4 µg/mL)
SMILES: CC(C)C[C@H](NC(=O)[C@H](C)NC(=O)[C@H](CC(N)=O)NC(=O)[C@H](CC(C)C)NC(=O)[C@@H](N)Cc1ccccc1)C(=O)N[C@@H](CCCCN)C(=O)N[C@@H](CC(N)=O)C(=O)N[C@@H](Cc1ccccc1)C(=O)N[C@@H](C)C(=O)N[C@@H](CCCCN)C(=O)N[C@H](C(=O)N[C@@H](C)C(=O)NCC(=O)N[C@@H](CCCCN)C(=O)N[C@@H](CCCN=C(N)N)C(=O)N[C@@H](CC(C)C)C(=O)N[C@@H](CCCCN)C(=O)N[C@@H](CO)C(=O)N[C@@H](CC(C)C)C(=O)N[C@@H](CC(C)C)C(=O)N[C@@H](CC(N)=O)C(=O)O)[C@@H](C)O [FLNALKNFAKTAGKRLKSLLN]

MIC [9]: 22 µM (≈ 64 µg/mL) | MIC [10]: 22 µM (≈ 64 µg/mL) | MIC [11]: ≥ 44 µM | MIC [12]: 11 µM (≈ 32 µg/mL) | MIC [13]: 11 µM (≈ 32 µg/mL) | MIC [14]: 22 µM (≈ 64 µg/mL) | MIC [15]: 44 µM (≈ 128 µg/mL) | MIC [16]: 44 µM (≈ 128 µg/mL) | MIC [17]: 22 µM (≈ 64 µg/mL)
SMILES: NCCCC[C@H](NC(=O)CNC(=O)[C@H](CCCN=C(N)N)NC(=O)[C@H](Cc1ccc(O)cc1)NC(=O)[C@H](CCCN=C(N)N)NC(=O)[C@H](Cc1c[nH]c2ccccc12)NC(=O)[C@H](CCCN=C(N)N)NC(=O)[C@H](Cc1ccccc1)NC(=O)[C@H](CCCCN)NC(=O)[C@H](CCCCN)NC(=O)[C@H](Cc1c[nH]c2ccccc12)NC(=O)[C@H](CCCN=C(N)N)NC(=O)[C@H](CCCN=C(N)N)NC(=O)[C@H](CS)NC(=O)CN)C(=O)N[C@@H](Cc1ccccc1)C(=O)N[C@@H](Cc1c[nH]c2ccccc12)C(=O)N[C@@H](Cc1ccccc1)C(=O)N[C@@H](Cc1c[nH]c2ccccc12)C(=O)N[C@@H](CS)C(=O)NCC(N)=O [GCRRWKKFRWRYRGKFWFWCG]

MIC [18]: 17 µM (≈ 31.7 µg/mL) | MIC (Xanthomonas citri): 4 µM (≈ 7.46 µg/mL) | MIC (Methylobacterium sp.): 9 µM (≈ 16.8 µg/mL)
SMILES: CC[C@H](C)[C@H](N)C(=O)N[C@@H](Cc1ccccc1)C(=O)NCC(=O)N[C@@H](C)C(=O)N[C@H](C(=O)N[C@@H](CC(C)C)C(=O)N1CCC[C@H]1C(=O)N[C@@H](CC(C)C)C(=O)N[C@@H](C)C(=O)N[C@@H](CC(C)C)C(=O)NCC(=O)N[C@@H](C)C(=O)N[C@@H](CC(C)C)C(=O)N[C@@H](CCCCN)C(=O)N[C@@H](CC(N)=O)C(=O)N[C@@H](CC(C)C)C(=O)N[C@H](C(=O)N[C@@H](CCCCN)C(=O)O)[C@@H](C)CC)[C@@H](C)CC [IFGAILPLALGALKNLIK]

MIC [19]: 25 µM (≈ 37.5 µg/mL) | MIC [20]: 12.5 µM (≈ 18.8 µg/mL) | MIC [21]: 25 µM (≈ 37.5 µg/mL) | MIC [22]: 25 µM (≈ 37.5 µg/mL) | MIC [23]: 25 µM (≈ 37.5 µg/mL) | MIC [24]: 4.38 µM (≈ 6.58 µg/mL) | MIC [25]: 12.5 µM (≈ 18.8 µg/mL) | MIC [26]: 25 µM (≈ 37.5 µg/mL) | MIC [27]: 25 µM (≈ 37.5 µg/mL) | MIC [28]: 25 µM (≈ 37.5 µg/mL) | MIC [14]: 50 µM (≈ 75.1 µg/mL) | MIC [15]: 12.5 µM (≈ 18.8 µg/mL) | MIC (Bacillus subtilis 168): ≥ 50 µM | MIC [29]: 25 µM (≈ 37.5 µg/mL) | MIC [30]: 25 µM (≈ 37.5 µg/mL) | MIC [31]: > 50 µM | MIC [32]: ≥ 50 µM
SMILES: CC[C@H](C)[C@H](N)C(=O)N1CCC[C@H]1C(=O)N1CCC[C@H]1C(=O)N[C@@H](Cc1ccccc1)C(=O)N[C@H](C(=O)N[C@@H](CCCCN)C(=O)N[C@@H](CCCCN)C(=O)N[C@H](C(=O)N[C@@H](CC(C)C)C(=O)N[C@H](C(=O)N[C@H](C(=O)N[C@H](C(=O)N[C@@H](Cc1ccccc1)C(N)=O)C(C)C)[C@@H](C)O)[C@@H](C)O)C(C)C)[C@@H](C)CC [IPPFIKKVLTTVF]

MIC [19]: 3.34 µM (≈ 12 µg/mL) | MIC (Serratia sp. ATCC 21074): 3.34 µM (≈ 12 µg/mL) | MIC [33]: 2.23 µM (≈ 8 µg/mL) | MIC [34]: 3.34 µM (≈ 12 µg/mL) | MIC [35]: 2.23 µM (≈ 8 µg/mL) | MIC [36]: 4.46 µM (≈ 16 µg/mL) | MIC [37]: 2.23 µM (≈ 8 µg/mL) | MIC [38]: 5.57 µM (≈ 20 µg/mL) | MIC [39]: 3.34 µM (≈ 12 µg/mL)
SMILES: CC[C@H](C)[C@H](NC(=O)[C@H](CCCN=C(N)N)NC(=O)[C@H](CCC(=O)O)NC(=O)[C@@H]1CCCN1C(=O)[C@@H]1CCCN1C(=O)[C@H](Cc1ccc(O)cc1)NC(=O)[C@H](CC(C)C)NC(=O)[C@H](Cc1ccccc1)NC(=O)[C@H](CCC(N)=O)NC(=O)[C@@H]1CCCN1C(=O)CNC(=O)[C@@H](NC(=O)[C@H](Cc1ccc(O)cc1)NC(=O)[C@H](CCC(N)=O)NC(=O)[C@H](CC(N)=O)NC(=O)[C@H](CCCCN)NC(=O)[C@H](CCCN=C(N)N)NC(=O)[C@H](CCC(=O)O)NC(=O)[C@H](CO)NC(=O)[C@H](Cc1ccc(O)cc1)NC(=O)[C@@H]1CCCN1C(=O)[C@H](CCCN=C(N)N)NC(=O)[C@H](CCCCN)NC(=O)[C@H](CC(=O)O)NC(=O)[C@H](CCCCN)NC(=O)[C@H](CCC(N)=O)NC(=O)[C@@H](N)CCCN=C(N)N)[C@@H](C)O)C(=O)N1CCC[C@H]1C(=O)N1CCC[C@H]1C(=O)O [RQKDKRPYSERKNQYTGPQFLYPPERIPP]
